“Also recorded” adds a separate entry of the source. Where no end group is shown, it is not given here.
Columns and labels:
Type in all cases: physicochemical
[1] = Solubility of the peptide in buffers and excipients, determined by RP-HPLC
Experimental: Different ionic species, pH and excipients were evaluated, to achieve the total solubility of the peptide, and a high chemical stability. Solubility of peptide was evaluated with different excipients, which included different ionic salts, sugars, polyols, amino acids and detergents.
First stage of the formulation development included the evaluation of buffer species influence and pH on chemical and physical stability of the peptide.

[2] = Stability of the peptide in 50 mM sodium phosphate buffer pH 7.4 at 37° C. (RP-HPLC, mass spectrometry)
Experimental: FIG. 1. Chromatographic profile of APL-type peptide identified as Seq ID No. 1 dissolved in 50 mM sodium phosphate buffer, pH 7.4. The profile was obtained by reverse phase chromatography (RP-HPLC), (A) time 0, (B) 15 days of storage at 37° C.
APL type peptide was obtained by chemical synthesis. […] To study the causes of such effect, peptide was dissolved in that buffer and stored at 37° C. for 15 days. Subsequently, several aliquots were analyzed periodically by RP-HPLC. Presence of contaminating species was verified, these were purified and analyzed by mass spectrometry, and several fractions were identified that could correspond to degradations.
In order to accelerate the degradation, peptide was incubated under stress conditions that allow the possible degraded species of the peptide to be obtained fast and in high proportions. Fractions collected after RP-HPLC were characterized by mass spectrometry.

[3] = Molecular exclusion chromatography-HPLC of the peptide in water, PBS and sucrose; conditions: dissolved in water (control)
From the text: FIG. 3. Molecular exclusion chromatography—HPLC of the peptide of Seq ID No. 1 dissolved in water (A), in phosphate buffered saline (PBS) (B) and in sucrose (C).
In PBS the peptide eluted in a shorter retention time, compared to the sample dissolved in water and in sucrose solution.

[4] = Effect of pH on concentration and purity of the peptide in 50 mM sodium acetate buffer (RP-HPLC); conditions: 2.5 mg/mL in 50 mM sodium acetate buffer, pH 3.0, 4.0, 5.0; 4° C. or 37° C., 15 days
Experimental: FIG. 4. Effect of pH on concentration of peptide identified as Seq ID No. 1, in samples formulated and stored at 4° C. (A) and at 37° C. (B).
FIG. 5. Effect of pH on the purity of the peptide identified as Seq ID No. 1, in samples formulated and stored at 37° C.
Three pH values were analyzed: 3.0; 4.0 and 5.0. Samples were filtered and stored at 4° C. or at 37° C., for 15 days. Evaluation of stability and concentration of peptide was carried out by RP-HPLC. Results of concentration of peptide stored at 4° C. or at 37° C., respectively, are shown in FIGS. 4A and 4B, respectively. […] At 37° C., precipitation process is accelerated.
Chemical integrity of peptide (expressed as % purity in RP-HPLC) was greater than 95%, for the samples formulated in three pH values, when these were stored at 4° C., for 15 days.

In the case of “SIDLKDKYKNIGAKLVQLVANNTNEEA [peptide identified as Seq ID No. 1]”, the solubility of peptide ([1]; in other ionic species: sodium citrate, sodium glutamate and Tris-HCl) is reported as “very poorly soluble”, the solubility of peptide ([1]; in sodium phosphate buffer (50 mM, pH 7.4)) is reported as “very poorly soluble; also recorded: poorly soluble” and the solubility of peptide ([1]; in solutions of sucrose or trehalose, peptide 1-10 mg/mL) is reported as “highest solubility”. The solubility of peptide ([1]; sodium acetate buffer (acetic acid and sodium hydroxide), 10-70 mM) was “best solubilized the peptide”, the “degraded species identified by mass spectrometry (fractions 1, 2 and 4)” value ([2]; 50 mM sodium phosphate buffer pH 7.4, 15 days at 37° C.) was “deamidated variants of the peptide” and the “stability of peptide in solution” value ([2]; 50 mM sodium phosphate buffer, pH 7.4) was “progressively destabilized”. For the same sequence, the solubility of peptide [3] was “good solubility” and the “physical stability of peptide” value [4] was “greater at pH 3.0”.

— patent US20240316147A1, “PHARMACEUTICAL COMPOSITION COMPRISING AN APL TYPE PEPTIDE” (CENTRO DE INGENIERIA GENÉTICA Y BIOTECNOLOGIA, priority 2017, published 2024)
